Assay [1] has as its system HEK293 cells. Nature of the assay: Cellular growth inhibition assay (CellTiter-Glo), HEK293 cells. It counts as cell-based. The settings on record: three days compound treatment, CellTiter-Glo 2.0, read-out: CTG HEK293 GI50. The procedure, abridged: (§1)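 HEK293 or HeLa cells seeded at 500 cells/well in DMEM with 10% FBS, treated after 24 h with titrated compound for three days at 37 °C, 5% CO2. CellTiter-Glo 2.0 luminescence read on Day 0 and Day 3, normalized to DMSO, four-parameter fit giving GI50.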
A general note: In ATP-based viability assays light output follows the ATP content of the culture.

The subject of assay [2] is HeLa cells. Nature of the assay: Cellular growth inhibition assay (CellTiter-Glo), HeLa cells. The format is cell-based. To be noted: three days compound treatment, CellTiter-Glo 2.0, read-out: CTG HELA GI50. The procedure, abridged: as §1
The target of assay [3] is T1, EGFR (Homo sapiens, UniProt P00533).
T1 construct: purchased
Nature of the assay: KdELECT binding assay, EGFR. Put shortly: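 Competition binding: DNA- or T7 phage-tagged EGFR was incubated 1 h at room temperature with immobilized ligand beads and an 11-point 3-fold compound series (0.9% DMSO final). Bead-bound kinase was eluted and quantified by qPCR to derive Kd.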

For assay [4], the target named is T2, EGFR T790M, L858R (amino acids 669-1011 Accession Number NP_005219.2) (Homo sapiens, UniProt P00533, L858R/T790M).
T2 construct: purchased Eurofins Discovery; host or cells: mammalian cells (HEK-293)
Nature of the assay: KdELECT binding assay (Eurofins Discovery), EGFR T790M, L858R. To be noted: read-out: EGFR DM Kd. The procedure, abridged:
(§2)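 Competition binding: WT kinase as T7 phage fusion from E. coli, T790M/L858R produced in HEK-293 and DNA-tagged, incubated 1 h at room temperature with immobilized ligand beads and compound (11-point 3-fold series, 0.9% DMSO). Bead-bound kinase eluted and quantified by qPCR to derive Kd.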

Assay [5] addresses T3, EGFR WT (amino acids 669-1011, Accession Number NP_005219.2) (Homo sapiens, UniProt P00533).
T3 construct: purchased Eurofins Discovery; host or cells: bacteria (E. coli, BL21-derived, T7 phage)
Nature of the assay: KdELECT binding assay (Eurofins Discovery), EGFR WT. Put shortly: as §2

Molecules are shown by their SMILES. Read-outs that look alike come from different tables or passages of the source.

T1 sequence (P00533 25-1210): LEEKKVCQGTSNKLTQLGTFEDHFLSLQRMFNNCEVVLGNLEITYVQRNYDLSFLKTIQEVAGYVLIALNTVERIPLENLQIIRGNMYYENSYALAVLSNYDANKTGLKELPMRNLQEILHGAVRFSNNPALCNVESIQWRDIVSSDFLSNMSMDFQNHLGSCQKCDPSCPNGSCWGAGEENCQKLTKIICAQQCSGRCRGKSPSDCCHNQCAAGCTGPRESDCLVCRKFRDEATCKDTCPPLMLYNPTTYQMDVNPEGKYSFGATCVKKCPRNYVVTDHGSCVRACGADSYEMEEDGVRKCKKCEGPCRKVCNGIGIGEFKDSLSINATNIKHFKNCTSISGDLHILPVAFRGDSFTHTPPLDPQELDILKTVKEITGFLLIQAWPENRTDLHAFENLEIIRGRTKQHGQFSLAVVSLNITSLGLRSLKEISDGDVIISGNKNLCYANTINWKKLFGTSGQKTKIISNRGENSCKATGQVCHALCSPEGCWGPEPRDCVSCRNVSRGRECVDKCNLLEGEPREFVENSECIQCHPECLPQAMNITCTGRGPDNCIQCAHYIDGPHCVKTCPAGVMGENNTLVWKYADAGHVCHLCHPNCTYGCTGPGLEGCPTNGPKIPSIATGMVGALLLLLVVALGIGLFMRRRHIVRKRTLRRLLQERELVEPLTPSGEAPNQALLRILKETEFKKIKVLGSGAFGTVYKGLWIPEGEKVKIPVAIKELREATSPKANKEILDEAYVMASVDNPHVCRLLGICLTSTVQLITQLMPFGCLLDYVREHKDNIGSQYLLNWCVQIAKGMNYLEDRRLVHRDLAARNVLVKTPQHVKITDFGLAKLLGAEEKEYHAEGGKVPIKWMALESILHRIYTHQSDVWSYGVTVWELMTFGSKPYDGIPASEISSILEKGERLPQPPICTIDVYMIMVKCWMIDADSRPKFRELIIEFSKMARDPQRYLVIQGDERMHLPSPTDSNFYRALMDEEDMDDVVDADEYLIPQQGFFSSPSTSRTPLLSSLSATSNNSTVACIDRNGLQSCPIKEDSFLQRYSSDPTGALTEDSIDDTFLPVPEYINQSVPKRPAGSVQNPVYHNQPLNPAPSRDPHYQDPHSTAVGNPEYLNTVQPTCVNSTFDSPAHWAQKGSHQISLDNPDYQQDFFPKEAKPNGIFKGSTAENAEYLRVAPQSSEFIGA
T2 sequence (P00533 669-1011 T790M/L858R): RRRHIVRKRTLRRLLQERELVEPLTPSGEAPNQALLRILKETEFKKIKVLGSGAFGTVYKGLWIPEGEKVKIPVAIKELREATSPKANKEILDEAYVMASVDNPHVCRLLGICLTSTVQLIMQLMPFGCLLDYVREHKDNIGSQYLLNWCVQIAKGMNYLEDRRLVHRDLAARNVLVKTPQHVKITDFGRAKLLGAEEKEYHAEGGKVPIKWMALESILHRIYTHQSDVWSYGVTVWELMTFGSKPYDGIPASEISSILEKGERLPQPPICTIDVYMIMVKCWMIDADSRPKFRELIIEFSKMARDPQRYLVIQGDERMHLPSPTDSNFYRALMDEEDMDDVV
T3 sequence (P00533 669-1011): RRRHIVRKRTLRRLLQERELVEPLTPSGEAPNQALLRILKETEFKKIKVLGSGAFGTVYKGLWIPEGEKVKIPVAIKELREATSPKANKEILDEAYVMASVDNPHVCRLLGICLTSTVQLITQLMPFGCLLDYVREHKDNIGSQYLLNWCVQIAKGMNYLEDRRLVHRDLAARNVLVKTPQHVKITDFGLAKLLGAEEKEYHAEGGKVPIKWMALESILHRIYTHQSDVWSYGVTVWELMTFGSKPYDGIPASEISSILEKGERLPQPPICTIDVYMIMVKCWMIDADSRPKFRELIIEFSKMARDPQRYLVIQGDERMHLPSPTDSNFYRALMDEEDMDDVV

As usually defined, the GI50 is the concentration that inhibits growth by half. What is called Kd is the concentration at which binding is half-saturated. With `C=CC(=O)Nc1cc(Nc2nccc(-c3cn(C)c4ccccc34)n2)c(OC)cc1N(C)CCN(C)CCOCCON(C)C(=O)N1N=C(c2cc(F)ccc2F)S[C@@]1(CCCN)c1ccccc1` [Compound I-127, (2S)-2-(3-aminopropyl)-5-(2,5-difluorophenyl)-N-[2-[2-[2-[5-methoxy-N-methyl-4-[[4-(1-methylindol-3-yl)pyrimidin-2-yl]amino]-2-(prop-2-enoylamino)anilino]ethyl-methyl-amino]ethoxy]ethoxy]-N-methyl-2-phenyl-1,3,4-thiadiazole-3-carboxamide], the GI50 in assay [1] (Homo sapiens, 72 h) is 500 to 1500 nM; in assay [2] (Homo sapiens, 72 h), 1500 to 5000 nM. Further, the Kd in assay [3] was 50 to 500 nM; in assay [4], < 50 nM; in assay [5] it was 50 to 500 nM.

Turning to `C=CC(=O)N[C@@H]1CN(c2nc(Nc3cn(CCOCCOCCNC(=O)c4ccc(Nc5ncc6c(n5)N(C5CCCC5)[C@H](CC)C(=O)N6C)c(OC)c4)nc3OC)c3ncn(C)c3n2)C[C@H]1F` [Compound I-128, 4-[[(7R)-8-cyclopentyl-7-ethyl-5-methyl-6-oxo-7H-pteridin-2-yl]amino]-N-[2[22-[2-[4-[[2-[(3R,4R)-3-fluoro-4-(prop-2-enoylamino)pyrrolidin-1-yl]-9-methyl-purin-6-yl]amino]-3-methoxy-pyrazol-1-yl]ethoxy]ethoxy]ethyl]-3-methoxy-benzamide], the GI50 in assay [1] (Homo sapiens, 72 h) is 500 to 1500 nM; in assay [2] (Homo sapiens, 72 h), 500 to 1500 nM. Further, the figures for the Kd in assay [3], in assay [4] and in assay [5] were 50 to 500 nM, < 50 nM and 50 to 500 nM, respectively.

For `CC[C@@H]1C(=O)N(C)c2cnc(Nc3ccc(C(=O)NCCOCCOCCOCCOCCN(C)C/C=C/C(=O)N[C@@H]4CN(c5nc(Nc6cn(C)nc6OC)c6ncn(C)c6n5)C[C@H]4F)cc3OC)nc2N1C1CCCC1` [Compound I-129, 4-[[(7R)-8-cyclopentyl-7-ethyl-5-methyl-6-oxo-7H-pteridin-2-yl]amino]-N-[2-[2-[2-[2-[2-[[(E)-4-[[(3R,4R)-4-fluoro-1-[6-[(3-methoxy-1-methyl-pyrazol-4-yl)amino]-9-methyl-purin-2-yl]pyrrolidin-3-yl]amino]-4-oxo-but-2-enyl]-methyl-amino]ethoxy]ethoxy]ethoxy]ethoxy]ethyl]-3-methoxy-benzamide], the GI50 was in the range of 500 to 1500 nM in assay [1] (Homo sapiens, 72 h) and 500 to 1500 nM in assay [2] (Homo sapiens, 72 h). Besides, the Kd in assay [3] lay in the range of 500 to 2500 nM; in assay [4], 50 to 500 nM; in assay [5] it was 500 to 2500 nM.

Regarding `C=CC(=O)Nc1cc(Nc2nccc(-c3cn(C)c4ccccc34)n2)c(OC)cc1N(C)CCN(C)CCCON(C)C(=O)N1N=C(c2cc(F)ccc2F)S[C@@]1(CCCN)c1ccccc1` [Compound I-130, (2S)-2-(3-aminopropyl)-5-(2,5-difluorophenyl)-N-[3-[2-[5-methoxy-N-methyl-4-[[4-(1-methylindol-3-yl)pyrimidin-2-yl]amino]-2-(prop-2-enoylamino)anilino]ethyl-methyl-amino]propoxy]-N-methyl-2-phenyl-1,3,4-thiadiazole-3-carboxamide], the GI50 in assay [1] (Homo sapiens, 72 h) fell in the range of 500 to 1500 nM; in assay [2] (Homo sapiens, 72 h), 500 to 1500 nM. In addition, the Kd was 500 to 2500 nM in assay [3], < 50 nM in assay [4] and 500 to 2500 nM in assay [5].

As to `C=CC(=O)N[C@@H]1CN(c2nc(Nc3cn(CCCNC(=O)c4ccc(Nc5ncc6c(n5)N(C5CCCC5)[C@H](CC)C(=O)N6C)c(OC)c4)nc3OC)c3ncn(C)c3n2)C[C@H]1F` [Compound I-131, 4-[(8-cyclopentyl-7-ethyl-5-methyl-6-oxo-7H-pteridin-2-yl)amino]-N-[3-[4-[[2-[(3R,4R)-3-fluoro-4-(prop-2-enoylamino)pyrrolidin-1-yl]-9-methyl-purin-6-yl]amino]-3-methoxy-pyrazol-1-yl]propyl]-3-methoxy-benzamide], the concentration for 50% growth inhibition (GI50) is 500 to 1500 nM in assay [1] (Homo sapiens, 72 h) and 500 to 1500 nM in assay [2] (Homo sapiens, 72 h). Also, the Kd in assay [3] is 500 to 2500 nM; in assay [4] it was < 50 nM; in assay [5] it was 500 to 2500 nM.

In the case of `C=CC(=O)Nc1cc(Nc2nccc(-c3cn(C)c4ccccc34)n2)c(OC)cc1N(C)CCN(C)CCOCCOCCOCCOCCOCCOCCOc1ccc(CNc2cc(N3CCCC[C@H]3CCO)nc3c(CC)cnn23)cn1` [Compound I-133], the 50% growth inhibitory concentration (GI50) is < 500 nM in assay [1] (Homo sapiens, 72 h) and < 500 nM in assay [2] (Homo sapiens, 72 h). The Kd in assay [3] is 500 to 2500 nM; in assay [4], < 50 nM; in assay [5], 500 to 2500 nM.

Take `C=CC(=O)N[C@@H]1CN(c2nc(Nc3cn(CCOCCON(C)C(=O)N4N=C(c5cc(F)ccc5F)S[C@@]4(CCCN)c4ccccc4)nc3OC)c3ncn(C)c3n2)C[C@H]1F` [Compound I-134, (2S)-2-(3-aminopropyl)-5-(2,5-difluorophenyl)-N—[2-[2-[4-[[2-[(3R,4R)-3-fluoro-4-(prop-2-enoylamino)pyrrolidin-1-yl]-9-methyl-purin-6-yl]amino]-3-methoxy-pyrazol-1-yl]ethoxy]ethoxy]-N-methyl-2-phenyl-1,3,4-thiadiazole-3-carboxamide]: the GI50 is > 5000 nM in assay [1] (Homo sapiens, 72 h) and 1500 to 5000 nM in assay [2] (Homo sapiens, 72 h). Besides, the Kd in assay [3], in assay [4] and in assay [5] was < 50 nM each time.

With `C=CC(=O)N[C@@H]1CN(c2nc(Nc3cn(CCCON(C)C(=O)N4N=C(c5cc(F)ccc5F)S[C@@]4(CCCN)c4ccccc4)nc3OC)c3ncn(C)c3n2)C[C@H]1F` [Compound I-135, (2S)-2-(3-aminopropyl)-5-(2,5-difluorophenyl)-N-[3-[4-[[2-[(3R,4R)-3-fluoro-4-(prop-2-enoylamino)pyrrolidin-1-yl]-9-methyl-purin-6-yl]amino]-3-methoxy-pyrazol-1-yl]propoxy]-N-methyl-2-phenyl-1,3,4-thiadiazole-3-carboxamide], the GI50 in assay [1] (Homo sapiens, 72 h) was > 5000 nM; in assay [2] (Homo sapiens, 72 h), > 5000 nM. Besides, the Kd in assay [3], in assay [4] and in assay [5] was < 50 nM in each case.

Regarding `C=CC(=O)N[C@@H]1CN(c2nc(Nc3cn(CCCN4CCN(CCCNC(=O)c5ccc(Nc6ncc7c(n6)N(C6CCCC6)[C@H](CC)C(=O)N7C)c(OC)c5)CC4)nc3OC)c3ncn(C)c3n2)C[C@H]1F` [Compound I-136, 4-[[(7R)-8-cyclopentyl-7-ethyl-5-methyl-6-oxo-7H-pteridin-2-yl]amino]-N-[3-[4-[3-[4-[[2-[(3R,4R)-3-fluoro-4-(prop-2-enoylamino)pyrrolidin-1-yl]-9-methyl-purin-6-yl]amino]-3-methoxy-pyrazol-1-yl]propyl]piperazin-1-yl]propyl]-3-methoxy-benzamide], the GI50 in assay [1] (Homo sapiens, 72 h) is 500 to 1500 nM; in assay [2] (Homo sapiens, 72 h) it was < 500 nM. Moreover, the Kd in assay [3], in assay [4] and in assay [5] was < 50 nM throughout.

As for `C=CC(=O)N[C@@H]1CN(c2nc(Nc3cn(CCCN4CCN(CCCON(C)C(=O)N5N=C(c6cc(F)ccc6F)S[C@@]5(CCCN)c5ccccc5)CC4)nc3OC)c3ncn(C)c3n2)C[C@H]1F` [Compound I-137, (2S)-2-(3-aminopropyl)-5-(2,5-difluorophenyl) —N-[3-[4-[3-[4-[[2-[(3R,4R)-3-fluoro-4-(prop-2-enoylamino)pyrrolidin-1-yl]-9-methyl-purin-6-yl]amino]-3-methoxy-pyrazol-1-yl]propyl]piperazin-1-yl]propoxy]-N-methyl-2-phenyl-1,3,4-thiadiazole-3-carboxamide], the GI50 was > 5000 nM in assay [1] (Homo sapiens, 72 h) and 1500 to 5000 nM in assay [2] (Homo sapiens, 72 h). Besides, the Kd in assay [3], in assay [4] and in assay [5] was < 50 nM each time.

With `C=CC(=O)N[C@@H]1CN(c2nc(Nc3cn(CCOc4ccc(CNc5cc(N6CCCC[C@H]6CCO)nc6c(CC)cnn56)cn4)nc3OC)c3ncn(C)c3n2)C[C@H]1F` [Compound I-139, N-[(3R,4R)-1-[6-[[1-[2-[[5-1[[[3-ethyl-5-[(2S)-2-(2-hydroxyethyl)-1-piperidyl]pyrazolo[1,5-a]pyrimidin-7-yl]amino]methyl]-2-pyridyl]oxy]ethyl]-3-methoxy-pyrazol-4-yl]amino]-9-methyl-purin-2-yl]-4-fluoro-pyrrolidin-3-yl]prop-2-enamide], the GI50 in assay [1] (Homo sapiens, 72 h) is < 500 nM; in assay [2] (Homo sapiens, 72 h) it was < 500 nM. Besides, the Kd in assay [3] was 50 to 500 nM; in assay [4] it was < 50 nM; in assay [5] it was 50 to 500 nM.

Regarding `C=CC(=O)N[C@@H]1CN(c2nc(Nc3cn(CCOCCOCCOCCOCCOCCOCCOc4ccc(CNc5cc(N6CCCC[C@@H]6CCO)nc6c(CC)cnn56)cn4)nc3OC)c3ncn(C)c3n2)C[C@H]1F` [Compound I-140, N—[(3R,4R)-1-[6-[[1-[2-[2-[2-[2-[2-[2-[2-[[5-111[[[3-ethyl-5-[(2R)-2-(2-hydroxyethyl)-1-piperidyl]pyrazolo[1,5-a]pyrimidin-7-yl]amino]methyl]-2-pyridyl]oxy]ethoxy]ethoxy]ethoxy]ethoxy]ethoxy]ethoxy]ethyl]-3-methoxy-pyrazol-4-yl]amino]-9-methyl-purin-2-yl]-4-fluoro-pyrrolidin-3-yl]prop-2-enamide], the GI50 in assay [1] and in assay [2] was < 500 nM in each case. For the same compound, the figures for the Kd in assay [3], in assay [4] and in assay [5] were 50 to 500 nM, < 50 nM and 50 to 500 nM, respectively.

The values are drawn from patent publication US20250032623A1, “HETEROBIFUNCTIONAL COMPOUNDS AND THEIR USE IN TREATING DISEASE” (HALDA THERAPEUTICS OPCO, INC., priority 2021, published 2025).
